Tested on: AM2.2 cells FAP-GPR32, fluorogen binding, flow cytometry MCF
Experiment: interference with FAP fluorogen signal – AM2.2 cells, flow cytometry, powder set 2, counter-screen for beta2AR agonist internalization project, dose response (AID 651729)

Row | SMILES | EC50 [nM]
1 | CN(CC(=O)N1CCN(c2ccccn2)CC1)S(=O)(=O)c1ccc(Cl)cc1 | 5.23
2 | CCOC(=O)c1ccc(NC(=O)Cn2nnc(-c3ccccc3)n2)cc1 | 134
3 | CC(=O)Nc1ccc(S(=O)(=O)NCCc2csc(-c3cccnc3)n2)cc1 | 11
4 | CCOC(=O)c1ccc(NC(=O)COc2ccc(S(=O)(=O)N3CCCC3)cc2)cc1 | 124

— PubChem BioAssay AID651729 (NMMLSC, 2012)
